Patent US20250120988A1, “SMALL MOLECULE COMPOUND FOR TREATING ISCHEMIC STROKE, ITS PREPARATION METHOD, AND APPLICATION” (SHANGHAI SIXTH PEOPLE'S HOSPITAL, priority 2023, published 2025)

Target: T1, GluN1+NR2A (Homo sapiens, UniProt Q05586+Q12879)
T1 construct: expressed in transfected cells; host or cells: CHO cells
Assay: Whole-cell patch clamp, blocking of GluN1+NR2A NMDAR current in CHO cells
Type: cell-based
Conditions: 100 μM NMDA and 1 μM glycine, read-out: IC50 of competitive antagonism against glutamate binding GluN1+NR2A currents
Method: Figure a illustrates LK-2 concentration-dependent blocking of signal of GluN1+GluN2A and GluN1+GluN2B subtypes of NMDAR currents (recorded from the same CHO cell) in patch clamp experiments, with 100 μM NDMA and 1 μM glycine used to activate NMDAR currents. LK-2 concentrations were 1, 10, 100, and 500 μM in sequence. Figure b illustrates the dose-response curves fitted based on the current amplitudes recorded in Figure a, with IC50 representing the half-maximal inhibitory concentration. Smaller IC50 values indicate stronger blocking effects of the compound.
[drawing 3] • 2. Electrophysiological experiments refer to the use of patch clamp techniques to overexpress ASICs (ASIC1a) and NMDARs (GluNR1+NR2A or GluNR1+NR2B) in CHO cell lines (Chinese hamster ovary cells), with the above-mentioned proteins carrying GFP green fluorescent protein for identification under fluorescence microscopy. The synthesized small molecules are separately tested for their blocking effects on the currents generated by the two types of receptors, and the IC50 values are calculated. • 2.1 The experimental steps of the membrane clamp technique are as follows.
Whole-cell patch clamp recordings were performed on neurons or CHO cells cultured in a cell-culture dish mounted on a fixed stage upright microscope. The recording electrode (resistance 4-6 MΩ) was made of 1.5 mm borosilicate glass. […]

T1 sequence (Q12879 23-1464, other chains not shown): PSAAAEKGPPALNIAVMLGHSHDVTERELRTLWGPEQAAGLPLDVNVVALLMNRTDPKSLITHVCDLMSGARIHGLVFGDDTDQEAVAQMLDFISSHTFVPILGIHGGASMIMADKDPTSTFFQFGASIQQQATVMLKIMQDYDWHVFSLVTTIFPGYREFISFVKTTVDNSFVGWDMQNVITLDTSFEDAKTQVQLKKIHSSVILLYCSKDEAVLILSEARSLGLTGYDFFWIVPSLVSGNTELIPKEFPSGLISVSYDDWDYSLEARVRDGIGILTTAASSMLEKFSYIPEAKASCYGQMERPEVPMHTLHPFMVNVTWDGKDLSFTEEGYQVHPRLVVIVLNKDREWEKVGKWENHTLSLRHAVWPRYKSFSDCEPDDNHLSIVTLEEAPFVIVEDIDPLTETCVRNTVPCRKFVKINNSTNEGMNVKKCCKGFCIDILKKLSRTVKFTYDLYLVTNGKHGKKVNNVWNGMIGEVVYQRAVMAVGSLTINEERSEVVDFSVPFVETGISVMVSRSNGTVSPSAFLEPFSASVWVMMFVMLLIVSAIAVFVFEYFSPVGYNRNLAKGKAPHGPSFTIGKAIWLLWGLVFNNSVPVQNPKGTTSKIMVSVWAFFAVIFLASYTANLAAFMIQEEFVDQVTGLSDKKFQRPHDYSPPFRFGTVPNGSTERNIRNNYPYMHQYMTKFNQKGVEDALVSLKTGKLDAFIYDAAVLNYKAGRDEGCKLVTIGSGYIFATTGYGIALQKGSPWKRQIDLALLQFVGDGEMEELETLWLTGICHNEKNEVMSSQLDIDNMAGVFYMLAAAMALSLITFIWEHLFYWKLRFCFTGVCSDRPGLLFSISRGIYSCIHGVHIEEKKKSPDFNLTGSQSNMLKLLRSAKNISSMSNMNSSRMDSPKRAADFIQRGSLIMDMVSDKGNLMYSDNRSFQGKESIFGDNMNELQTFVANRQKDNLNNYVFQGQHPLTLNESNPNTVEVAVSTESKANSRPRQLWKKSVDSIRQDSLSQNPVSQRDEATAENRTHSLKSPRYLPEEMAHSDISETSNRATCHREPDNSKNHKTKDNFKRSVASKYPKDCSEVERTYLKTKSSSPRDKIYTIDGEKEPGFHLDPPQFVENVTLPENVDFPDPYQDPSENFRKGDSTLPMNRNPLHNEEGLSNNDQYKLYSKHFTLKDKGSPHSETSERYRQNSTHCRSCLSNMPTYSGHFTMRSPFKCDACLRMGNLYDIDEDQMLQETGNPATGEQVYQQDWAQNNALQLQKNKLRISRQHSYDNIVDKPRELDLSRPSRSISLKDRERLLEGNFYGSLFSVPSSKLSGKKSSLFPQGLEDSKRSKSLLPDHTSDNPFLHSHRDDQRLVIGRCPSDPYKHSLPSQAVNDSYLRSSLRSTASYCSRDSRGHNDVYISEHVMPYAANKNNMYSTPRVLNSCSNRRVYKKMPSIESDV

IC50: 93.1 ± 28.3 µM
SMILES: O=C(O)C1CN(C(c2ccccc2)P(=O)(O)O)CCN1 (stereo not shown) [LK-2]
